{"source": "patent US5256700A", "about": "(priority 1990, dated 1993)", "key": {"[1]": {"tested_on": "simple herpes of type 1 (HSV1)", "assay": "Antiviral activity in vitro, test 1 (titer after 2 h incubation), HSV1", "type": "cell-based, HSV1 (cultured on VERO cell line)", "settings": "control 10^5"}, "[2]": {"tested_on": "simple herpes of type 2 (HSV2)", "assay": "Antiviral activity in vitro, test 1 (titer after 2 h incubation), HSV2", "type": "cell-based, HSV2 (cultured on VERO cell line)", "settings": "control 10^4"}, "[3]": {"tested_on": "simple herpes of type 1 (HSV1)", "assay": "Antiviral activity in vitro, test 2 (viral production after 4 days), HSV1", "type": "cell-based, HSV1 (cultured on VERO cell line)", "settings": "for Number of viral particles/0.025 ml supernatant, Test 2 HSV1: control 2 × 10^8"}, "[4]": {"tested_on": "simple herpes of type 2 (HSV2)", "assay": "Antiviral activity in vitro, test 2 (viral production after 4 days), HSV2", "type": "cell-based, HSV2 (cultured on VERO cell line)", "settings": "for Number of viral particles/0.025 ml supernatant, Test 2 HSV2: control 10^7"}, "DNA": {"tested_on": "DNA", "assay": "Degradation of DNA caused by free radicals"}, "Chemical stability": {"assay": "Chemical stability", "type": "physicochemical"}, "[5]": {"settings": "Brieskorn and Domling 1969; cited from earlier work"}, "[6]": {"tested_on": "certain microorganisms responsible for dental caries and bad breath", "settings": "CA 97, 84835q; cited from earlier work"}}}
{"smiles": "CC(C)c1cc2c(c(O)c1O)[C@@]1(C(=O)O)CCCC(C)(C)[C@@H]1CC2", "note": "[Carnosic acid]", "values": [{"measurement": "Number of viral particles/0.025 ml supernatant, Test 1 HSV1", "setting": "[1]; 0.62 μg/ml", "result": "10^4 viral particles/0.025 ml supernatant"}, {"measurement": "Number of viral particles/0.025 ml supernatant, Test 1 HSV1", "setting": "[1]; 1.25 μg/ml", "result": "10^3 viral particles/0.025 ml supernatant"}, {"measurement": "Number of viral particles/0.025 ml supernatant, Test 1 HSV1", "setting": "[1]; 2.5 μg/ml", "result": "10 viral particles/0.025 ml supernatant"}, {"measurement": "Number of viral particles/0.025 ml supernatant, Test 1 HSV1", "setting": "[1]; 5 μg/ml", "result": "10 viral particles/0.025 ml supernatant"}, {"measurement": "Number of viral particles/0.025 ml supernatant, Test 1 HSV2", "setting": "[2]; 0.62 μg/ml", "result": "10 viral particles/0.025 ml supernatant"}, {"measurement": "Number of viral particles/0.025 ml supernatant, Test 1 HSV2", "setting": "[2]; 1.25 μg/ml", "result": "10 viral particles/0.025 ml supernatant"}, {"measurement": "Number of viral particles/0.025 ml supernatant, Test 1 HSV2", "setting": "[2]; 2.5 μg/ml", "result": "10 viral particles/0.025 ml supernatant"}, {"measurement": "Number of viral particles/0.025 ml supernatant, Test 1 HSV2", "setting": "[2]; 5 μg/ml", "result": "10 viral particles/0.025 ml supernatant"}, {"measurement": "Number of viral particles/0.025 ml supernatant, Test 2 HSV1", "setting": "[3]; 0.62 μg/ml", "result": "6 × 10^6 viral particles/0.025 ml supernatant"}, {"measurement": "Number of viral particles/0.025 ml supernatant, Test 2 HSV1", "setting": "[3]; 1.25 μg/ml", "result": "2.5 × 10^6 viral particles/0.025 ml supernatant"}, {"measurement": "Number of viral particles/0.025 ml supernatant, Test 2 HSV1", "setting": "[3]; 2.5 μg/ml", "result": "10^5 viral particles/0.025 ml supernatant"}, {"measurement": "Number of viral particles/0.025 ml supernatant, Test 2 HSV1", "setting": "[3]; 5 μg/ml", "result": "10^2 viral particles/0.025 ml supernatant"}, {"measurement": "production of HSV1", "setting": "[3]; test 2", "result": "greatly affected"}, {"measurement": "Number of viral particles/0.025 ml supernatant, Test 2 HSV2", "setting": "[4]; 0.62 μg/ml", "result": "8 × 10^5 viral particles/0.025 ml supernatant"}, {"measurement": "Number of viral particles/0.025 ml supernatant, Test 2 HSV2", "setting": "[4]; 1.25 μg/ml", "result": "10^5 viral particles/0.025 ml supernatant"}, {"measurement": "Number of viral particles/0.025 ml supernatant, Test 2 HSV2", "setting": "[4]; 2.5 μg/ml", "result": "2 × 10^2 viral particles/0.025 ml supernatant"}, {"measurement": "Number of viral particles/0.025 ml supernatant, Test 2 HSV2", "setting": "[4]; 5 μg/ml", "result": "< 10 viral particles/0.025 ml supernatant"}, {"measurement": "production of HSV2", "setting": "[4]; test 2", "result": "greatly affected"}, {"measurement": "effect on the degradation of DNA caused by the free radicals", "setting": "DNA", "result": "inhibiting effect"}, {"measurement": "sensitivity to oxidation", "setting": "Chemical stability; like any catechol-type molecule", "result": "highly sensitive to oxidation"}, {"measurement": "stability, purified and crystallized form", "setting": "Chemical stability; purified and crystallized form", "result": "stable"}, {"measurement": "cell toxicity", "setting": "VERO cell line", "result": "absence of cell toxicity"}, {"measurement": "antioxidant activity", "setting": "[5]", "result": "powerful antioxidant"}, {"measurement": "antibiotic activity against microorganisms responsible for dental caries and bad breath", "setting": "[6]", "result": "against certain microorganisms responsible for dental caries and bad breath"}]}
